Assay results: US11192849B2, “Compounds, compositions, and methods for modulating ferroptosis and treating excitotoxic disorders” (THE TRUSTEES OF COLUMBIA UNIVERSITY IN THE CITY OF NEW YORK, priority 2013, dated 2021)
Like-named read-outs stand apart in the source and are kept apart here. Values belong to the compound of their own block, whether it stands above or below them.

Experiments:
[1] = Metabolic stability in mouse liver microsomes; format: in vitro ADME; details: Compound Conc = 0.5 μM; for Elimination rate constant (k) / Intrinsic Clearance (CLint) (mL/min/g liver): Mouse; for half-life at 0.5 μM: mouse, liver microsomes, pH 7.4, Mouse, read-out: Half life (t½)
Protocol: Test compounds (0.5 μM) were incubated at 37° C. for up to 45 minutes in 50 mM of potassium phosphate buffer (pH 7.4) containing mouse liver microsomal protein (0.5 mg/mL) and an NADPH generating system (0.34 mg/mL β-nicotinamide adenine dinucleotide phosphate (NADP), 1.56 mg/mL glucose-6-phosphate, 1.2 units/mL glucose-6-phosphate dehydrogenase). At 0, 5, 15, 30, and 45 minute intervals, an aliquot was taken and quenched with acetonitrile (ACN) containing internal standard. No-cofactor controls at 45 minutes were prepared. Following completion of the experiment, the samples were analyzed by LC-MS/MS.
The half-life (t1/2) was calculated using the following equation: t1/2=0.693/k Where, k is the elimination rate constant of test compounds obtained by fitting the data to the equation: C=initial×exp(−k×t) Intrinsic clearance (Clint) is calculated as liver clearance from the half-life using the following equation: […]
0.5 mg protein/mL incubation
Ethoxycoumarin was used as a control.

HT-1080 cells = test: Inhibition of erastin (10 μM)-induced death in HT-1080 cells (Alamar Blue); format: cell-based, human; details: for EC50: Homo sapiens, read-out: EC50
Protocol: Cell viability was typically assessed in 384-well format by Alamar Blue (Invitrogen) fluorescence (ex/em 530/590) measured on a Victor3 platereader (Perkin Elmer, Waltham, Mass.). In some experiments, Trypan Blue dye exclusion counting was performed using an automated cell counter (ViCell, Beckman-Coulter Inc., Brea, Calif.). Cell viability in test conditions is reported as a percentage relative to the negative control treatment.
The ability of various compounds disclosed herein to inhibit death in erastin (10 μM)-treated HT-1080 cells were tested. Cell viability was assessed by Alamar Blue. EC50 values (nM) were computed from dose response curves.
HT-1080 cells are cultured in DMEM containing 10% fetal bovine serum, 1% supplemented non-essential amino acids and 1% pen/strep mixture (Gibco) and maintained in a humidified environment at 37° C. with 5% CO2 in a tissue culture incubator. 1,000 HT-1080 cells are seeded per well in duplicate 384-well plates (Corning) using a BioMek FX liquid handling robot (Beckman Coulter). The next day, the medium is replaced with 36 μL of medium containing 10 μM erastin with 4 μL of medium containing a dilution series (previously prepared) of DMSO, Fer-1 (positive control) or Fer-1 analogs. 24 hours later, 10 μL Alamar Blue (Invitrogen) cell viability solution is added to the growth media to a final concentration of 10%. Cells are incubated a further 6 hours and then the Alamar Blue fluorescence intensity recorded using a Victor 3 platereader (PerkinElmer)(ex/em 530/590). All experiments are performed at least twice and the background (no cells)-subtracted Alamar Blue values for each combination are averaged between replicates.

[2] = In vitro stability study in mouse plasma; format: in vitro ADME
Protocol: The assay was conducted by incubating 1 μM of test compounds with Mouse Plasma (Strain […]) for a series of incubation times (0, 15, 30, 60, 120 minutes) at various temperatures (wet ice, room temperature, or 37° C.) with 5% CO2 and shaking (130 rpm). At each time point, the samples were quenched with 200 μL of stop solution containing an internal standard and kept on ice. The samples were analysed by LC-MS/MS.

[3] = HT-1080, Table 1 (Example 10), erastin (10 μM)-treated HT-1080 cells

Elimination rate constant (k) [1]: 0.2661 | Intrinsic Clearance (CLint) (mL/min/g liver) [1]: 27.94 mL/min/g liver | half-life at 0.5 μM [1]: 2.6 min
SMILES: CCOc1ccc2ccc(=O)oc2c1 [Ethoxycoumarin, reference compound]

SMILES: CCOC(=O)c1ccc(NC2CCCCC2)c(NCc2ccc(Cl)cc2)c1 [SRS12-49, ethyl 3-(4-chlorobenzylamino)-4-(cyclohexylamino)benzoate]
EC50 (HT-1080 cells; HT-1080, SI Table 6): 0.371 µM

SMILES: CCOC(=O)c1ccc(NC2CCCCC2)c(NCc2ccc(C#N)cc2)c1 [SRS12-50, ethyl 3-(4-cyanobenzylamino)-4-(cyclohexylamino)benzoate]
EC50 (HT-1080 cells; HT-1080, SI Table 6): 0.1 µM

SMILES: CCOC(=O)c1ccc(NC2CCCCC2)c(NCc2ccc3ccccc3c2)c1 [SRS12-51, ethyl 4-(cyclohexylamino)-3-(naphthalen-2-ylmethylamino)-benzoate]
EC50 (HT-1080 cells; HT-1080, SI Table 7): 0.058 µM

SMILES: CCOC(=O)c1ccc(NC2CCCCC2)c(NCc2cc(F)cc(Br)c2)c1 [SRS12-52, ethyl 3-(3-bromo-5-fluorobenzylamino)-4-(cyclohexylamino)-benzoate]
EC50 (HT-1080 cells; HT-1080, SI Table 7): 0.105 µM

SMILES: CCOC(=O)c1ccc(NC2CCCCC2)c(NCc2cc(OC)cc(OC)c2)c1 [SRS12-53, ethyl 4-(cyclohexylamino)-3-(3,5-dimethoxybenzylamino)-benzoate]
EC50 (HT-1080 cells; HT-1080, SI Table 7): 0.041 µM

SMILES: CCOC(=O)c1ccc(NC2CCCCC2)c(NCc2ccc(F)c(C#N)c2)c1 [SRS12-54, ethyl 3-(3-cyano-4-fluorobenzylamino)-4-(cyclohexylamino)-benzoate]
EC50 (HT-1080 cells; HT-1080, SI Table 7): 0.159 µM

SMILES: CCOC(=O)c1ccc(NC2CCCCC2)c(NCc2cccc(F)c2)c1 [SRS12-57, ethyl 4-(cyclohexylamino)-3-(3-fluorobenzylamino)benzoate]
EC50 (HT-1080 cells; HT-1080, SI Table 6): 0.1 µM

SMILES: CCOC(=O)c1ccc(NC2CCCCC2)c(NCc2cccc(Cl)c2)c1 [SRS12-58, ethyl 3-(3-chlorobenzylamino)-4-(cyclohexylamino)benzoate]
EC50 (HT-1080 cells; HT-1080, SI Table 6): 0.041 µM

SMILES: CCOC(=O)c1ccc(NC2CCCCC2)c(NCc2cc(F)cc(F)c2)c1 [SRS12-59, ethyl 4-(cyclohexylamino)-3-(3,5-difluorobenzylamino)-benzoate]
EC50 (HT-1080 cells; HT-1080, SI Table 7): 0.096 µM

SMILES: CCOC(=O)c1ccc(NC2CCCCC2)c(NCc2ccccc2[N+](=O)[O-])c1 [SRS12-71, ethyl 4-(cyclohexylamino)-3-(2-nitrobenzylamino)benzoate]
EC50 (HT-1080 cells; HT-1080, SI Table 6): 0.126 µM

SMILES: CCOC(=O)c1ccc(NC2CCCCC2)c(NCc2ccc(C(=O)OC)cc2)c1 [SRS12-80, ethyl 4-(cyclohexylamino)-3-(4-(methoxycarbonyl)-benzylamino)benzoate]
EC50 (HT-1080 cells; HT-1080, SI Table 7): 0.033 µM

SMILES: CCOC(=O)c1ccc(CNc2cc(C(=O)OCC)ccc2NC2CCCCC2)cc1 [SRS12-84, ethyl 4-(cyclohexylamino)-3-(4-(ethoxycarbonyl)benzylamino)-benzoate]
EC50 (HT-1080 cells; HT-1080, SI Table 7): 0.053 µM

SMILES: CCOC(=O)c1ccc(NC2CCCCC2)c(NCc2cccnc2)c1 [SRS13-12, ethyl 4-(cyclohexylamino)-3-(pyridin-3-ylmethylamino)-benzoate]
EC50 (HT-1080 cells; HT-1080, SI Table 7): 0.048 µM

SMILES: CCOC(=O)c1ccc(NC2CCC(C(C)(C)C)CC2)c(NCc2ccncc2)c1 (stereo not shown) [SRS13-30, ethyl 4-(4-tert-butylcyclohexylamino)-3-(pyridin-4-ylmethylamino)benzoate]
EC50 (HT-1080 cells; HT-1080, SI Table 7): 0.114 µM

SMILES: CCOC(=O)c1ccc(NC23CC4CC(CC(C4)C2)C3)c([N+](=O)[O-])c1 [SRS15-15]
EC50 (nM) (HT-1080 cells; Table 1 (Example 10), erastin (10 μM)-treated HT-1080 cells): Not active

SMILES: CCOC(=O)c1ccc(NC2C3CC4CC(C3)CC2C4)c(N)c1 (stereo not shown) [SRS15-17, ethyl 3-amino-4-(2-adamantylamino)benzoate]
EC50 (HT-1080 cells; [3]): 0.171 µM

SMILES: CCOC(=O)c1ccc(NC23CC4CC(CC(C4)C2)C3)c(N)c1 [SRS15-18, ethyl 3-amino-4-(1-adamantylamino)benzoate]
EC50 (HT-1080 cells; [3]): 0.0877 µM

SMILES: CCOC(=O)c1ccc(NC2C3CC4CC(C3)CC2C4)c(N(Cc2ccccc2)Cc2ccccc2)c1 (stereo not shown) [SRS15-20_di, ethyl 3-(dibenzylamino)-4-(2-adamantylamino)benzoate]
EC50 (HT-1080 cells; [3]): 0.914 µM

SMILES: CCOC(=O)c1ccc(NC2C3CC4CC(C3)CC2C4)c(NCc2ccccc2)c1 (stereo not shown) [SRS15-20_mono, ethyl 3-(benzylamino)-4-(2-adamantylamino)benzoate]
EC50 (HT-1080 cells; [3]): 0.0217 µM

SMILES: CCOC(=O)c1ccc(NC2C3CC4CC(C3)CC2C4)c(NCc2ccncc2)c1 (stereo not shown) [SRS15-21, ethyl 4-(2-adamantylamino)-3-((pyridin-4-ylmethyl)amino)-benzoate]
EC50 (HT-1080 cells; [3]): 0.023 µM

SMILES: CCOC(=O)c1ccc(NC23CC4CC(CC(C4)C2)C3)c(NCc2ccccc2)c1 [SRS15-23, ethyl 3-(benzylamino)-4-(1-adamantylamino)benzoate]
EC50 (HT-1080 cells; [3]): 0.023 µM

SMILES: CCOC(=O)c1ccc(NC23CC4CC(CC(C4)C2)C3)c(NCc2ccncc2)c1 [SRS15-24, ethyl 4-(1-adamantylamino)-3-((pyridin-4-ylmethyl)amino)-benzoate]
EC50 (HT-1080 cells; [3]): 0.0086 µM

SMILES: CCOC(=O)c1ccc(NC23CC4CC(CC(C4)C2)C3)c(/N=C\c2cncnc2)c1 [SRS15-72, ethyl 4-(adamantylamino)-3-(pyrimidin-5-ylmethyleneamino)benzoate]
EC50 (HT-1080 cells; [3]): 0.288 µM | Elimination rate constant (k) [1]: 0.0045 | Intrinsic Clearance (CLint) (mL/min/g liver) [1]: 0.47 mL/min/g liver | half-life at 0.5 μM [1]: 154 min | Peak Area Ratio ([2]; Room Temperature, 0 min): 2.0737 | Percent Remaining ([2]; Room Temperature, 0 min): 100.0% | Peak Area Ratio ([2]; Room Temperature, 15 min): 1.1581 | Percent Remaining ([2]; Room Temperature, 15 min): 55.8% | Peak Area Ratio ([2]; Room Temperature, 30 min): 0.5320 | Percent Remaining ([2]; Room Temperature, 30 min): 25.7% | Peak Area Ratio ([2]; Room Temperature, 60 min): 0.2502 | Percent Remaining ([2]; Room Temperature, 60 min): 12.1% | Peak Area Ratio ([2]; Room Temperature, 120 min): 0.0841 | Percent Remaining ([2]; Room Temperature, 120 min): 4.1% | Peak Area Ratio ([2]; Wet Ice, 0 min): 2.6066 | Percent Remaining ([2]; Wet Ice, 0 min): 100.0% | Peak Area Ratio ([2]; Wet Ice, 15 min): 2.0815 | Percent Remaining ([2]; Wet Ice, 15 min): 79.9% | Peak Area Ratio ([2]; Wet Ice, 30 min): 1.6279 | Percent Remaining ([2]; Wet Ice, 30 min): 62.5% | Peak Area Ratio ([2]; Wet Ice, 60 min): 1.4397 | Percent Remaining ([2]; Wet Ice, 60 min): 55.2% | Peak Area Ratio ([2]; Wet Ice, 120 min): 1.2446 | Percent Remaining ([2]; Wet Ice, 120 min): 47.7%

SMILES: CCOC(=O)c1ccc(NC23CC4CC(CC(C4)C2)C3)c(NCc2cncnc2)c1 [SRS16-41, ethyl 4-(adamantylamino)-3-(pyrimidin-5-ylmethylamino)benzoate]
EC50 (HT-1080 cells; [3]): 0.016 µM | Elimination rate constant (k) [1]: 0.3149 | Intrinsic Clearance (CLint) (mL/min/g liver) [1]: 35.9 mL/min/g liver | half-life at 0.5 μM [1]: 2 min | Peak Area Ratio ([2]; Room Temperature, 0 min): 5.8556 | Percent Remaining ([2]; Room Temperature, 0 min): 100.0% | Peak Area Ratio ([2]; Room Temperature, 15 min): 0.6709 | Percent Remaining ([2]; Room Temperature, 15 min): 11.5% | Peak Area Ratio ([2]; Room Temperature, 30 min): 0.0885 | Percent Remaining ([2]; Room Temperature, 30 min): 1.5% | Peak Area Ratio ([2]; Room Temperature, 60 min): 0.0206 | Percent Remaining ([2]; Room Temperature, 60 min): 0.4% | Peak Area Ratio ([2]; Room Temperature, 120 min): 0.0159 | Percent Remaining ([2]; Room Temperature, 120 min): 0.3% | Peak Area Ratio ([2]; Wet Ice, 0 min): 6.9233 | Percent Remaining ([2]; Wet Ice, 0 min): 100.0% | Peak Area Ratio ([2]; Wet Ice, 15 min): 5.7631 | Percent Remaining ([2]; Wet Ice, 15 min): 83.2% | Peak Area Ratio ([2]; Wet Ice, 30 min): 4.7595 | Percent Remaining ([2]; Wet Ice, 30 min): 68.7% | Peak Area Ratio ([2]; Wet Ice, 60 min): 3.4547 | Percent Remaining ([2]; Wet Ice, 60 min): 49.9% | Peak Area Ratio ([2]; Wet Ice, 120 min): 1.9564 | Percent Remaining ([2]; Wet Ice, 120 min): 28.3%
